The record followed here is patent US11420970B1 (NOVARTIS AG, priority 2019, dated 2022).

One experiment concerns the target NSD2 [1-1365] (Homo sapiens (Human), UniProt O96028). Kind of experiment: LC-MS/MS-based NSD2 enzymatic assay (SAH production). Type of experiment: biochemical. The settings on record: read-out: NSD2 IC50. The method, boiled down: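 Full-length NSD2 [1-1365] (8 nM final) with 1 μM SAM and 400 nM mouse-liver nucleosome in Tris pH 8.0 buffer; inhibitor preincubated 20 min with enzyme/SAM before nucleosome addition. Reaction 90 min at room temperature, TFA-quenched; SAH quantified by LC-MS/MS against d4-SAH internal standard and SAH standard curve.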

In experiment [1] the test system is cellular H3K36me2 level in multiple myeloma cell line KMS11 (t(4;14)+). Kind of experiment: H3K36me2 cellular ELISA assay in KMS11-Par line. The class given is cell-based. Conditions: Homo sapiens, KMS-11, ELISA, read-out: H3K36me2 ELISA in KMS11-Par. The protocol: H3K36Me2 Cellular ELISA Assay in KMS11-Par Line
An ELISA (enzyme-linked immunosorbent assay) based assay was used to test the ability of candidate compound to reduce cellular H3K36me2 level in multiple myeloma cell line KMS11 (t(4;14)+). KMS11 (Horizon Discovery Ltd.) cells are maintained in RPM11640 media with 12.5% FBS and 50 U/ml Penicillin-Streptomycin. For assay compound treatment, single cell suspension was prepared in Opti-MEM supplemented with B-27 and N2 supplement (Invitrogen 11058-021, 17504-044, 17502-048) for ELISA and in maintenance media for cellTiter Glo (CTG) viability assay. One day prior to cell treatment, 1,250 KMS11 cells were seeded into 384-well Greiner CellStar TC plate (Greiner #781086) at the final volume of 30 μL/well.
Cells were treated with tested compounds at the desired concentration for 72 hours. Crude histone lysate was extracted by 0.4M HCl following neutralization by 0.5M Sodium phosphate, dibasic (Na2HPO4), pH ˜12.5. Equal amount of histone lysate was loaded to Corning 384-well high biding plate (Corning #3577, black) for H3K36m2 and to Thermo 384-well high binding Nunc plate (Thermo #460372, white) for total H3.
Histone bound plates were washed and blocked with 5% BSA. […] The abundance of H3K36me2 and total H3 was measured by Chemiluminesce on a plate reader. Cell viability was monitored on a parallel seeded plate with CellTiter-Glo reagent (Promega #G7573).
For orientation: In an ELISA, binding on a coated surface is turned into a signal by an enzyme label.

[2] abbreviates: NSD2 biochemical activity, class symbols.
The mark [3] stands for this setting: KMS11-Par line (t(4;14)+), 72 hours treatment.

Where two headings read alike, the source gives them in different places.

NSD2 [1-1365], sequence (O96028 whole entry): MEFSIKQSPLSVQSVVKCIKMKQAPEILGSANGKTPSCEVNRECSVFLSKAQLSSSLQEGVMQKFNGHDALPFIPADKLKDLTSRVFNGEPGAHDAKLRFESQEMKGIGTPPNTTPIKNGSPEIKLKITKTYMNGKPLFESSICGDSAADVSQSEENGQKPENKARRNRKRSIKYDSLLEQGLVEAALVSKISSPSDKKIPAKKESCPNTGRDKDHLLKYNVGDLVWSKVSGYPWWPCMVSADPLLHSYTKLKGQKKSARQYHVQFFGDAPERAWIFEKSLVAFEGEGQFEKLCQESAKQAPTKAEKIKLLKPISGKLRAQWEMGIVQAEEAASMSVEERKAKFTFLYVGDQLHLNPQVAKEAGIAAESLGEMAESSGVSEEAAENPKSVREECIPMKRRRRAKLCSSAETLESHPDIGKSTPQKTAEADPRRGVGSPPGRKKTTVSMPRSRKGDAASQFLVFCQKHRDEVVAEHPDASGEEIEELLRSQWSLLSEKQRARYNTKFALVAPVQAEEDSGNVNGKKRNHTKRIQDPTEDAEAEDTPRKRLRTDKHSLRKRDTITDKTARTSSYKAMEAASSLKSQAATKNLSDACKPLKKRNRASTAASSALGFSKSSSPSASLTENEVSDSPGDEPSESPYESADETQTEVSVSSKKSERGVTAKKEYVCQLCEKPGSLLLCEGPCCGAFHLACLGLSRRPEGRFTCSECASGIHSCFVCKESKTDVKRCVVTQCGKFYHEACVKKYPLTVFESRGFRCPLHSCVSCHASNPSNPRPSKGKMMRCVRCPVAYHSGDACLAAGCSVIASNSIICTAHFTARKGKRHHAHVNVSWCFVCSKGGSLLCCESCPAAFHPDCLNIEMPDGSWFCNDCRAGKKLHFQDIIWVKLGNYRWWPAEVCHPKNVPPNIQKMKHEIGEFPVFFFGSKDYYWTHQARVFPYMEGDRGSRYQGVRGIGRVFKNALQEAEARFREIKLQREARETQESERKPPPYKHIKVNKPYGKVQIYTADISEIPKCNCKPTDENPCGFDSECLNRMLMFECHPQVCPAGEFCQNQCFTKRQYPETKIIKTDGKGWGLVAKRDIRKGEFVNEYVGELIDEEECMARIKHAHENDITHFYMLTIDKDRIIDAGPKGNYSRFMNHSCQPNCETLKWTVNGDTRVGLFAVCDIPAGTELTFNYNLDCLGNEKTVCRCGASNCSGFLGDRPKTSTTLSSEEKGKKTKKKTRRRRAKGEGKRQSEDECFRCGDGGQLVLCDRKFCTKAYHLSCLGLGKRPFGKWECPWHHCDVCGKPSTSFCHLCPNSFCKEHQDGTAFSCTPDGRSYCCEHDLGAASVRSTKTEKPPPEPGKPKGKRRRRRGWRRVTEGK

As for `Cc1cccc(C[C@@]2(N)CCCN(c3cnc(-c4ccc(F)c(F)c4)cc3Cn3cnc4c(N)ncnc43)C2)n1` [Example 55, (S)-9-((5-(3-amino-3-((6-methylpyridin-2-yl)methyl)piperidin-1-yl)-2-(3,4-difluorophenyl)pyridin-4-yl)methyl)-9H-purin-6-amine], the results for the IC50 (at NSD2 [1-1365] (setting [2]); in experiment [1] (setting [3])) were 1 to 10 nM and 910 nM, respectively.
Take `COc1ccc(-c2cc(Cn3cnc4c(N)nccc43)c(N3CCC[C@](N)(Cc4nccs4)C3)cn2)cc1F` [Example 57, (S)-1-((5-(3-amino-3-(thiazol-2-ylmethyl)piperidin-1-yl)-2-(3-fluoro-4-methoxyphenyl)pyridin-4-yl)methyl)-1H-imidazo[4,5-c]pyridin-4-amine]: the values for the IC50 (on NSD2 [1-1365] (setting [2]); in experiment [1] (setting [3])) were 1 to 10 nM and 610 nM, respectively.
Consider `Nc1nccc2c1ncn2Cc1cc(-c2ccc(F)c(F)c2)ncc1N1CCC[C@](N)(Cc2ncco2)C1` [Example 63, (S)-1-((5-(3-amino-3-(oxazol-2-ylmethyl)piperidin-1-yl)-2-(3,4-difluorophenyl)pyridin-4-yl)methyl)-1H-imidazo[4,5-c]pyridin-4-amine], for which the IC50 was 10 to 1000 nM at NSD2 [1-1365] (setting [2]) and 7910 nM in experiment [1] (setting [3]).
As for `Nc1ncnc2c1ncn2Cc1cc(-c2ccc(NC(=O)CCBr)cc2)ncc1N1CCCC(N)(CC(F)F)C1` (centres unmarked) [Example 64, N-(4-(5-(3-amino-3-(2,2-difluoroethyl)piperidin-1-yl)-4-((6-amino-9H-purin-9-yl)methyl)pyridin-2-yl)phenyl)-3-bromopropanamide], the results for the IC50 (at NSD2 [1-1365] (setting [2]); in experiment [1] (setting [3])) were 10 to 1000 nM and 7000 nM, respectively.
For the compound `C[C@@H](c1ccccn1)[C@@]1(N)CCCN(c2cnc(-c3ccc(F)c(F)c3)cc2Cn2cnc3c(N)ncnc32)C1` [Example 65, 9-((5-((S)-3-amino-3-((R)-1-(pyridin-2-yl)ethyl)piperidin-1-yl)-2-(3,4-difluorophenyl)pyridin-4-yl)methyl)-9H-purin-6-amine], the IC50 at NSD2 [1-1365] (setting [2]) is 10 to 1000 nM; in experiment [1] (setting [3]), 1130 nM.
In the same order, the values of `Nc1ncnc2c1ncn2Cc1cc(-c2ccc(F)c(F)c2)ncc1N1CCCC(N)(Cc2cccc(F)n2)C1` (centres unmarked) [Example 69, 9-((5-(3-amino-3-((6-fluoropyridin-2-yl)methyl)piperidin-1-yl)-2-(3,4-difluorophenyl)pyridin-4-yl)methyl)-9H-purin-6-amine] are 10 to 1000 nM and 1150 nM.
Consider `Nc1ncnc2c1ncn2Cc1cc(-c2ccc(F)c(F)c2)ncc1N1CCC[C@](N)(Cc2cnccn2)C1` [Example 74, (S)-9-((5-(3-amino-3-(pyrazin-2-ylmethyl)piperidin-1-yl)-2-(3,4-difluorophenyl)pyridin-4-yl)methyl)-9H-purin-6-amine], for which the IC50 on NSD2 [1-1365] (setting [2]) was 10 to 1000 nM; in experiment [1] (setting [3]), 4220 nM.
In the case of `C=CC(=O)Nc1ccc(-c2cc(Cn3cnc4c(N)ncnc43)c(N3CCCC(N)(CC(F)F)C3)cn2)cc1` (centres unmarked) [Example 76, N-(4-(5-(3-amino-3-(2,2-difluoroethyl)piperidin-1-yl)-4-((6-amino-9H-purin-9-yl)methyl)pyridin-2-yl)phenyl)acrylamide], the figures for the IC50 (on NSD2 [1-1365] (setting [2]); in experiment [1] (setting [3])) were 10 to 1000 nM and 2120 nM, respectively.
As for `CCO[C@H](C)C1(N)CCCN(c2cnc(-c3ccc(F)c(F)c3)cc2Cn2cnc3c(N)ncnc32)C1` (stereo partly drawn) [Example 99, 9-((5-(3-amino-3-((R)-1-ethoxyethyl)piperidin-1-yl)-2-(3,4-difluorophenyl)pyridin-4-yl)methyl)-9H-purin-6-amine], the IC50 is 10 to 1000 nM at NSD2 [1-1365] (setting [2]) and 21000 nM in experiment [1] (setting [3]).
As to `Cc1cc2c(cnn2C)cc1-c1cc(Cn2cnc3c(N)ncnc32)c(N2CCC[C@](N)([C@@H](O)C(F)F)C2)cn1` [Example 136, (R)-1-((R)-3-amino-1-(4-((6-amino-9H-purin-9-yl)methyl)-6-(1,6-dimethyl-1H-indazol-5-yl)pyridin-3-yl)piperidin-3-yl)-2,2-difluoroethan-1-ol], the IC50 at NSD2 [1-1365] (setting [2]) was 10 to 1000 nM; in experiment [1] (setting [3]), 8800 nM.
In the case of `Cc1cccc(C2(N)CCCN(c3cnc(-c4ccc(F)c(F)c4)cc3Cn3cnc4c(N)ncnc43)C2)n1` (centres unmarked) [Example 177, 9-((5-(3-amino-3-(6-methylpyridin-2-yl)piperidin-1-yl)-2-(3,4-difluorophenyl)pyridin-4-yl)methyl)-9H-purin-6-amine], the IC50 on NSD2 [1-1365] was 1 to 10 nM; in experiment [1] (KMS11-Par line, 72 hours), 407 nM.
With `Nc1ncnc2c1ncn2Cc1cc(-c2ccc(F)c(F)c2)ncc1N1CCC[C@](N)(c2ncccc2F)C1` [Example 199, (R)-9-((5-(3-amino-3-(3-fluoropyridin-2-yl)piperidin-1-yl)-2-(3,4-difluorophenyl)pyridin-4-yl)methyl)-9H-purin-6-amine], the IC50 on NSD2 [1-1365] was 1 to 10 nM; in experiment [1] (KMS11-Par line, 72 hours), 846 nM.
Regarding `CCc1cccc([C@@]2(N)CCCN(c3cnc(-c4ccc(F)cc4)cc3Cn3cnc4c(N)ncnc43)C2)n1` [Example 202, (R)-9-((5-(3-amino-3-(6-ethylpyridin-2-yl)piperidin-1-yl)-2-(4-fluorophenyl)pyridin-4-yl)methyl)-9H-purin-6-amine], the IC50 was 1 to 10 nM at NSD2 [1-1365] and 264 nM in experiment [1] (KMS11-Par line, 72 hours).
Turning to `Nc1ncnc2c1ncn2Cc1cc(-c2ccc(F)cc2)ncc1N1CCC[C@](N)(c2cccc(C(F)F)n2)C1` [Example 203, (R)-9-((5-(3-amino-3-(6-(difluoromethyl)pyridin-2-yl)piperidin-1-yl)-2-(4-fluorophenyl)pyridin-4-yl)methyl)-9H-purin-6-amine], the IC50 on NSD2 [1-1365] was 1 to 10 nM; in experiment [1] (KMS11-Par line, 72 hours), 389 nM.
In the same order, the values of `Nc1ncnc2c1ncn2Cc1cc(-c2ccc(F)cc2)ncc1N1CCCC(N)(c2cccc(Cl)n2)C1` (centres unmarked) [Example 205, 9-((5-(3-amino-3-(6-chloropyridin-2-yl)piperidin-1-yl)-2-(4-fluorophenyl)pyridin-4-yl)methyl)-9H-purin-6-amine] are 1 to 10 nM and 632 nM.
On to `Nc1ncnc2c1ncn2Cc1cc(-c2ccc(F)c(F)c2)ncc1N1CCC[C@](N)(c2ccncc2)C1` [Example 245, (S)-9-((5-(3-amino-3-(pyridin-4-yl)piperidin-1-yl)-2-(3,4-difluorophenyl)pyridin-4-yl)methyl)-9H-purin-6-amine], for which the IC50 is 10 to 1000 nM on NSD2 [1-1365] and 2150 nM in experiment [1] (KMS11-Par line, 72 hours).
For `Nc1ncnc2c1ncn2Cc1cc(-c2ccc(F)c(F)c2)ncc1N1CCC[C@](N)(c2ccnc(Cl)c2)C1` [Example 246, (S)-9-((5-(3-amino-3-(2-chloropyridin-4-yl)piperidin-1-yl)-2-(3,4-difluorophenyl)pyridin-4-yl)methyl)-9H-purin-6-amine], the IC50 was 10 to 1000 nM on NSD2 [1-1365] and 16700 nM in experiment [1] (KMS11-Par line, 72 hours).
For `Cc1cc([C@@]2(N)CCCN(c3cnc(-c4ccc(F)c(F)c4)cc3Cn3cnc4c(N)ncnc43)C2)ccn1` [Example 247, (S)-9-((5-(3-amino-3-(2-methylpyridin-4-yl)piperidin-1-yl)-2-(3,4-difluorophenyl)pyridin-4-yl)methyl)-9H-purin-6-amine], the IC50 at NSD2 [1-1365] is 10 to 1000 nM; in experiment [1] (KMS11-Par line, 72 hours) it was 33300 nM.
In the same order, the values of `Nc1ncnc2c1ncn2Cc1cc(-c2ccc(F)c(F)c2)ncc1N1CCC[C@](N)(c2ccncc2F)C1` [Example 248, (S)-9-((5-(3-amino-3-(3-fluoropyridin-4-yl)piperidin-1-yl)-2-(3,4-difluorophenyl)pyridin-4-yl)methyl)-9H-purin-6-amine] are 10 to 1000 nM and 2880 nM.
Regarding `CCc1cccc([C@@]2(N)CCCN(c3cnc(C4CC4)cc3Cn3cnc4c(N)nccc43)C2)n1` [Example 252, (R)-1-((5-(3-amino-3-(6-ethylpyridin-2-yl)piperidin-1-yl)-2-cyclopropylpyridin-4-yl)methyl)-1H-imidazo[4,5-c]pyridin-4-amine], the IC50 on NSD2 [1-1365] was 10 to 1000 nM; in experiment [1] (KMS11-Par line, 72 hours), 7250 nM.
`Nc1ncnc2c1ncn2Cc1cc(-c2ccc(F)c(F)c2)ncc1N1CCCC(N)(c2cncc(Cl)n2)C1` (centres unmarked) [Example 254, 9-((5-(3-amino-3-(6-chloropyrazin-2-yl)piperidin-1-yl)-2-(3,4-difluorophenyl)pyridin-4-yl)methyl)-9H-purin-6-amine]: the IC50 on NSD2 [1-1365] is 10 to 1000 nM; in experiment [1] (KMS11-Par line, 72 hours), 1540 nM.
Take `Nc1ncnc2c1ncn2Cc1cc(-c2ccc(F)c(F)c2)ncc1N1CCCC(N)(c2cnccn2)C1` (centres unmarked) [Example 259, 9-((5-(3-amino-3-(pyrazin-2-yl)piperidin-1-yl)-2-(3,4-difluorophenyl)pyridin-4-yl)methyl)-9H-purin-6-amine]: the IC50 at NSD2 [1-1365] is 10 to 1000 nM; in experiment [1] (KMS11-Par line, 72 hours), 3540 nM.
